Experimental data reported in patent US9642829B2, “Antifungal compound and uses thereof” (The University of Hong Kong, priority 2012, dated 2017).

Experiments:
[1] = test system: C. albicans; assay: Antifungal susceptibility (MIC/MFC), CLSI criteria, 96-well double dilution; assay type: cell-based, Candida albicans; conditions: for Susceptibility (MIC90): 0.5 McFarland inoculum (10^6 cells/ml)
Experimental: (§1) Antifungal activity of the small molecules was evaluated using USA standards, Clinical and Laboratory Standards Institute (CLSI) criteria. In brief, inocula from 24 h Candida cultures on Sabourauds's dextore agar were standardized to a turbidity equivalent of 0.5 McFarland standards at 520 nm with a spectrophotometer. The suspensions were further diluted in Rosewell Park Memorial Institute (RPMI) 1640 medium (Life technologies, New York, USA) to yield an inoculum concentration of approximately 0.5 1×10^3 to 2.5 1×10^3 cells/ml. Minimum inhibitory concentration (MIC) and minimum fungicidal concentration (MFC) assay was performed in 96-well plates (Iwaki, Tokyo, Japan) and each of the Candida species was exposed to a double dilution of SM21. Amphotericin B was used as a positive control. All the experiments were preformed three occasions with duplicates for all isolates. The plates were incubated at 35° C. for 48 h to evaluate MIC. In the case of Cryotococcus neoformans, reading were taken after 72 h. Aforementioned assay was performed for C. albicans ATCC 90028, C. albicans SC5314 and 10 C. albicans clinical isolates. Moreover, MIC/MFC determination was carried out for other fungal species such as C. glabrata, C. krusei, C. tropicalis, C. parapsilosis, C. neoformans, Aspergillus fumigates and Penicillium marneffei. […] Next using dose-dependent assay we tested that MIC/MFC of SM21 from 10^3 cells/ml to 10^7 cells/ml of C. albicans (Table 2). Each of the foregoing experiment was repeated on three different occasions.

[2] = test system: C. parapsilosis; assay: Antifungal susceptibility (MIC/MFC), CLSI criteria; assay type: cell-based, Candida parapsilosis; conditions: C. parapsilosis ATCC; 0.5 McFarland inoculum (10^6 cells/ml)
Experimental: Antifungal activity of the small molecules was evaluated using USA standards, Clinical and Laboratory Standards Institute (CLSI) criteria. In brief, inocula from 24 h Candida cultures on Sabourauds's dextore agar were standardized to a turbidity equivalent of 0.5 McFarland standards at 520 nm with a spectrophotometer. The suspensions were further diluted in Rosewell Park Memorial Institute (RPMI) 1640 medium (Life technologies, New York, USA) to yield an inoculum concentration of approximately 0.5 1×10^3 to 2.5 1×10^3 cells/ml. Minimum inhibitory concentration (MIC) and minimum fungicidal concentration (MFC) assay was performed in 96-well plates (Iwaki, Tokyo, Japan) and each of the Candida species was exposed to a double dilution of SM21. Amphotericin B was used as a positive control. All the experiments were preformed three occasions with duplicates for all isolates. The plates were incubated at 35° C. for 48 h to evaluate MIC. In the case of Cryotococcus neoformans, reading were taken after 72 h. Aforementioned assay was performed for C. albicans ATCC 90028, C. albicans SC5314 and 10 C. albicans clinical isolates. Moreover, MIC/MFC determination was carried out for other fungal species such as C. glabrata, C. krusei, C. tropicalis, C. parapsilosis, C. neoformans, Aspergillus fumigates and Penicillium marneffei. […]

[3] = test system: C. albicans; assay: Dose-dependent assay of MIC/MFC at different cell densities; assay type: cell-based, Candida albicans; parameters: unit not given here
Experimental: as §1

[4] = test system: C. albicans biofilms; assay: Mono species Candida biofilm MIC, XTT assay; assay type: cell-based, Candida albicans
Experimental: (§2) For instance, we have previously shown the resistance of Candida biofilms against amphotericin and caspofungin. Therefore, next using standard biofilm assays we have established in our laboratory, we examined the effect of SM21 against Candida biofilms. In brief, Candida cells were grown in SDA medium at 37° C. for 18 h. Then a loopful of the yeast was inoculated into the yeast nitrogen base (YNB; Difco) medium supplemented with 50 mM glucose in a rotary shaker at 75 rpm. After overnight broth culture, the yeasts were harvested in the late exponential growth phase and washed twice with 20 ml of phosphate buffer saline (PBS; pH 7.2. 0.1 M) prior to use in the biofilm studies. Candida biofilms were developed according to a previously published protocol. In brief, washed yeast cells were resuspended in YNB supplemented with 100 mM glucose and adjusted to an optical density of 0.38 at 520 nm (1×10^7 cells/ml). The standard cell suspension was used immediately to develop biofilms on commercially available presterilized, polystyrene, 96-well plate (IWAKI, Tokyo, Japan). At first, 100 μl of standardized cell suspension (1×10^7 cells/ml) was pipetted into each well of a microtiter plate and incubated for 1.5 h at 37° C. in a shaker at 75 rpm to permit yeast adherence to the well surface (adherence phase). For controls, a well of each microtiter plate was handled in an identical fashion except that no Candida suspension was added. Following the adhesion phase, the cell suspensions were aspirated, and each well washed with 100 μl of PBS to remove loosely adherent cells. 200 μl of YNB with 100 mM glucose were then pipetted into each of the washed wells and the plates incubated at 37° C. in a shaker at 75 rpm for 24 or 48 h. After biofilm growth phase microscopic examination of the cultures were performed to rule out contamination. Then, the suspending medium was aspirated and biofilms were washed with 100 μl PBS to remove the nonadherent cells. The stock solutions were diluted twofold with RPMI 1640 supplemented with 2% glucose to obtain SM21 concentration from 100 to 0.2 μg/ml drug concentrations. In parallel, other antifungal agents such as caspofungin (100 to 0.1 μg/ml) and amphotericin B (240 μg/ml to 0.225 μg/ml) was also prepared as describe above. A total of 100 μl of drug solution was added to the microtiter plate containing Candida biofilms. Biofilms were then incubated at 37° C. for 24 h with the antifungals and afterwards metabolic activity of fungal cells was determined by the XTT [2,3-bis(2-methoxy-4-nitro-5-sulfophenyl)-2H-tetrazolium-5-carboxanilide sodium salt] assay (17, 28). Candida biofilm MIC90 was defined as the lowest drug concentration with 90% reduction in opacity compared with the drug free control. Each experiment was repeated three times with four replicates.

[5] = test system: C. glabrata biofilms; assay: Mono species Candida biofilm MIC, XTT assay; assay type: cell-based; conditions: 48 h C. glabrata biofilms
Experimental: as §2

[6] = test system: C. krusei biofilms; assay: Mono species Candida biofilm MIC, XTT assay; assay type: cell-based; conditions: 48 h C. krusei biofilms
Experimental: as §2

CN(C)c1ccc(/C=C/c2cc(C(C)(C)C)[o+]c(C(C)(C)C)c2)cc1.[O-][Cl+3]([O-])([O-])[O-] [SM21]
Antifungal activity against clinical isolates ([1]; 20 C. albicans strains isolated from HIV/AIDS patients): active against all isolates
Susceptibility (MIC90) ([1]; C. albicans ATCC 90028): 0.2 µg/mL
Susceptibility (MIC90) ([1]; C. albicans CL1): 0.2 µg/mL
Susceptibility (MIC90) ([1]; C. albicans CL2): 0.2 µg/mL
Susceptibility (MIC90) ([1]; C. albicans CL3): 1.6 µg/mL
Susceptibility (MIC90) ([1]; C. albicans CL4): 0.8 µg/mL
Susceptibility (MIC90) ([1]; C. albicans CL5): 1.6 µg/mL
Susceptibility (MIC90) ([1]; C. albicans CL6): 1.6 µg/mL
Susceptibility (MIC90) ([1]; C. albicans CL7): 0.8 µg/mL
Susceptibility (MIC90) ([1]; C. albicans CL8): 0.8 µg/mL
Susceptibility (MIC90) ([1]; C. albicans CL9): 1.6 µg/mL
Susceptibility (MIC90) ([1]; C. albicans CL10): 1.6 µg/mL
Susceptibility (MIC90) ([1]; C. albicans SC5314): 0.2 µg/mL
Susceptibility (MIC90) [2]: 1.6 µg/mL
MIC/MFC ([3]; C. albicans 10^4 cells/ml): 0.1
MIC/MFC ([3]; C. albicans 10^5 cells/ml): 0.1
MIC/MFC ([3]; C. albicans 10^6 cells/ml): 0.2
MIC/MFC ([3]; C. albicans 10^7 cells/ml): 0.6
Biofilm MIC90 ([4]; 24 h C. albicans biofilms, 24 h drug exposure, XTT): 3.2 µg/mL
Minimum inhibitory concentration of 48 h Candida biofilms ([4]; 48 h C. albicans biofilms): 25 µg/mL
Minimum inhibitory concentration of 48 h Candida biofilms [5]: 25 µg/mL
Minimum inhibitory concentration of 48 h Candida biofilms [6]: 25 µg/mL
